{
  "source": "patent US20030166715A1",
  "about": "“Use of vitaletheine modulators in the prophylaxis and treatment of disease” (priority 1990, published 2003)",
  "key": {"[1]": {"tested_on": "Cloudman S-91 murine melanoma cells", "test": "Treatment of murine Cloudman S-91 melanoma in mice, tumor volume", "assay_type": "in vivo, mouse", "procedure": "This regimen is predicated on the observation that certain enzymes thought to be responsive to these compounds, and which may pay a role in the reported results, are induced 48 hours after chemical stimulation. […] Data presented is calculated from measured tumor diameters, including mice with no tumor. Error bars indicate standard error of the mean.\nCloudman S-91 murine melanoma cells (American Type Culture Collection #53.1, Clone M-3) from a (C X DBA)F1 male mouse were grown in 75 ml flasks (Corning Glass Works, Corning, N.Y., USA) containing Ham's F12 medium supplemented with 15% fetal bovine serum, penicillin (100 U/ml), and streptomycin (100 μg/ml), all commercially available from Sigma Chemical Company, St. Louis, Mo., USA. Cultures were incubated at 37° C. under 5.5% carbon dioxide initially at 6×10^6 cells per ml for two days, with a medium change after one day. Cultures were then trypsinized, split into two fresh flasks at one half the cell density, above, and maintained for one week prior to injection in female (DBA X BALB c) mice (CD2F1/Hsd from Harlan Sprague Dawley, Inc., Indianapolis, Ind., USA). For inoculation, cells were first trypsinized, washed 3 times in phosphate buffered saline, and diluted to 1×10^5 cells/100 μl phosphate buffered saline prior to subcutaneous injection in the flank.\nThe compounds were dissolved in water, filtered through an appropriate sterilizing filter (0.22 μm non-pyrogenic, μ Star LB™ from Costar®, Cambridge, Mass., USA), diluted to the desired concentration in sterile, physiological saline (0.1 ml), and injected intraperitoneally with a 27 gauge, ⅜ inch allergy syringe (Becton Dickinson, Rutherford, N.J., USA); by gently lifting the skin on the abdomen of supine mice and injecting horizontally, puncture of peritoneal organs is avoided, thereby minimizing trauma to the mice."}, "CFU-E and BFU-E": {"tested_on": "CFU-E and BFU-E", "test": "Modulation of erythropoiesis: stimulation of colony formation synergistically with erythropoietin (FIG. 3a/3b)", "assay_type": "cell-based", "from_the_text": "(§1) Colony formation from the early murine progenitors not exposed to vitalethine, and either initially exposed to or initially deprived of erythropoietin are represented by upper and lower triangles, respectively. […] Bars are standard error of the mean.\n(§2) Human bone marrow cells were obtained as surplus from experiments performed on material aspirated from normal volunteers with IRB approval and informed written consent. Peripheral blood cells were obtained from commercially purchased buffy coats or surgical waste (umbilical cord blood). Mouse bone marrow was flushed from femurs and obtained as surplus from experiments performed on C57B1/6 mice with animal committee approval. Human light density cells were separated by centrifugation over Ficoll-daitrizoate (SG 1.075) and depleted of adherent cells by incubation on serum coated plastic. Mouse cells were used without further fractionation. […] One unit per ml of erythropoietin and medium without added factors served as positive and negative controls. Initial incubations were carried out for 18 hours at 37° . […]"}, "CFU-E progenitors": {"tested_on": "CFU-E progenitors", "test": "Modulation of erythropoiesis: colony formation from CFU-E progenitors in plasma clot culture", "assay_type": "cell-based, murine", "conditions": "depending upon concentration (FIG. 3a)", "from_the_text": "as §1, §2"}, "human BFU-E": {"tested_on": "human BFU-E", "test": "Modulation of erythropoiesis: colony formation from human BFU-E in plasma clot culture", "assay_type": "cell-based", "conditions": "18 h initial incubation with vitalethine; compared with levels initially containing erythropoietin (FIG. 3a)", "from_the_text": "as §1, §2"}},
  "data": [
    {"smiles": "O=C(O)NCCC(=O)NCCSSCCNC(=O)CCNC(=O)O", "note": "[vitalethine, N,N′-(dithiodi-2,1-ethanediyl)-bis-(3-carboxyamino-propan-amide)]", "values": [
      {"measurement": "average tumor volume", "setting": "[1]; 100 pg/kg mouse (FIG. 1b)", "value": "diminishes average tumor volume substantially"},
      {"measurement": "diminution of tumor volume compared to saline controls", "setting": "[1]; 10 femtogram/kg mouse intraperitoneally three times per week, beginning second day after tumor inoculation", "value": "~70", "unit": "%"},
      {"measurement": "average tumor volume", "setting": "[1]; 10 fg/kg mouse (FIG. 1a)", "value": "diminishes average tumor volume substantially"},
      {"measurement": "concentration necessary for a similar response (stimulation of colony formation)", "setting": "CFU-E and BFU-E", "value": "about 10 pg/ml"},
      {"measurement": "erythropoiesis from the CFU-E progenitors", "setting": "CFU-E progenitors", "value": "either enhances or minimizes erythropoiesis"},
      {"measurement": "colony formation from human BFU-E initially deprived of erythropoietin", "setting": "human BFU-E", "value": "increased"}
    ]}
  ]
}
